Measurements published in patent US9000166B2, “Metal complexes” (Merck Patent GmbH, priority 2005, dated 2015).

Assay: Solubility in various solvents at T=25° C.
Assay type: physicochemical
Text: Excellent solubility of the complex is found in many common organic solvents, even in polar protic solvents, such as ethanol and ethanol/water mixtures. As comparison in accordance with the prior art, the solubility of fac-tris[2-(2-pyridinyl-κN)phenyl-κC]iridium(III) (IrPPy) is indicated.

fac-Tris[2-(2-pyridinyl-κN)-5-(tri-n-butylphosphonium)phenyl)-κC]iridium(III) tribromide [Example 1]
Solubility (Acetone): unlimited | Solubility (Chloroform): unlimited | Solubility (DMF): unlimited | Solubility (DMSO): unlimited | Solubility (Dichloromethane): unlimited | Solubility (Ethanol): 134.0 mg/mL | Solubility (Hexane): >1.0 mg/mL | Solubility (NMP): unlimited | Solubility (Toluene): unlimited | Solubility (Water): 11.5 mg/mL | Solubility (Water/ethanol (1:1, v,v)): 43.0 mg/mL
